Values quoted from earlier work as cited in US6610471B1, “Methods and compositions to investigate infection by hepatitis B virus and agents to prevent and treat the infection” (priority 1998, dated 2003).

Test system: chronic HBV infection
Conditions: patients receiving interferon-α treatment, long-term studies; cited from earlier work

interferon-α
patients with loss of circulating HBV antigens and improved survival rate: about 30 % of patients
